Reference: US11884750B2, “Cationic cell penetrating peptides and the use thereof” (CELLTROY CO., LTD., priority 2021, dated 2024)

Legend:
[1] = system: SH-SY5Y cells; assay: Cell penetration efficiency in human neuroblastoma cells, 4 μM, flow cytometry; assay type: cell-based; conditions: one hour; for cell permeability compared with TAT: 4 μM FITC-conjugated CPP, flow cytometry; for Score / Score/TAT: 4 μM FITC-conjugated peptide; for Score: intracellular fluorescence by flow cytometry; for Score/TAT: ratio to FITC-conjugated TAT
Description: The cell penetration efficiency of the cationic CPPs selected in Example 1 was evaluated in neuroblastoma. In further detail, SH-SYSY cells, which is a human neuroblastoma cell line, were seeded in 24-well plates to have a cell density of 1×10^7 cells/well, and cultured in 10% FBS-added DMEM under conditions of 37° C. and 5% CO2 for 24 hours. In addition, the cells were treated with 4 μM each of FITC-conjugated CPPs (C12, C14, C16, C31, C52, and C67), or FITC-conjugated TAT, and incubated for one hour. After the termination of the incubation, the cells were transferred to a sterile tube using 0.25% trypsin and centrifuged to remove the medium. Afterward, the cells were washed with 500 μL of D-PBS twice to completely remove the medium, and finally, resuspended in 400 μL of D-PBS and intracellular fluorescence was measured by flow cytometry (FACSCanto II).
To evaluate the cell penetration efficiency of the additionally selected cationic CPPs, an experiment was conducted using human epidermal cells or human neuroblastoma cells. In further detail, HaCAT cells, which is a human epidermal cell line, or SH-SYSY cells, which is a human neuroblastoma cell line, were seeded in 24-well plates to have a cell density of 1×10^7 cells/well and cultured in 10% FBS-added DMEM under conditions of 37° C. and 5% CO2 for 24 hours. In addition, the cells were treated with 4 μM each of FITC-conjugated peptides and FITC-conjugated TAT for one hour. After the completion of the culture, the cells were transferred to a sterile tube using 0.25% trypsin and centrifuged to remove the medium. Afterward, the cells were washed with 500 μL of D-PBS twice to completely remove the medium, and finally, resuspended in 400 μL of D-PBS and intracellular fluorescence was measured by flow cytometry (FACSCanto II).
(§1) Subsequently, to confirm whether the CPPs according to the present invention show excellent cell permeability into different types of cells/tissues, various tissue-derived cells were treated with biologically active molecule-conjugated CPPs to compare its delivery capacity with TAT. As in the previous examples, each cell was aliquoted in a plate at an appropriate density, and cultured in a 10% FBS-added medium under a condition of 37° C. and 5% CO2 for 24 hours. Subsequently, the cells were treated with 4 μM each of FITC-conjugated CPP or FITC-conjugated TAT and incubated for one hour. After the completion of the incubation, the cells were transferred to a sterile tube using 0.25% trypsin and centrifuged to remove the medium. Afterward, the cells were washed with 500 μL of D-PBS twice to completely remove the medium, and finally, resuspended in 400 μL of D-PBS and intracellular fluorescence was measured by flow cytometry (FACSCanto II).

[2] = system: HeLa cell line; assay: Cell penetration efficiency using cervical cancer cells; assay type: cell-based; conditions: 4 μM FITC-conjugated CPP, one hour
Description: as §1

[3] = system: HEK293T cell line; assay: Cell penetration efficiency using kidney cells; assay type: cell-based; conditions: 4 μM FITC-conjugated CPP, one hour
Description: as §1

[4] = system: HGB cell line; assay: Cell penetration efficiency in glioblastoma cells; assay type: cell-based, human; conditions: 4 μM FITC-conjugated CPP, one hour
Description: as §1

[5] = system: HT1080 cell line; assay: Cell penetration efficiency using connective tissue (fibrosarcoma) cells; assay type: cell-based; conditions: 4 μM FITC-conjugated CPP, one hour
Description: as §1

## AIKRRRRRALAKRP [C148]
[1]
  cell permeability compared with TAT: higher cell permeability
  Score: 669
  Score/TAT: 1.289
[2]
  cell permeability compared with TAT: higher cell permeability

## ARVRARLRRRRIEP [C229]
[1]
  cell permeability compared with TAT: higher cell permeability
  Score: 536
  Score/TAT: 1.033
[2]
  cell permeability compared with TAT: higher cell permeability
[3]
  cell permeability compared with TAT: higher cell permeability

## AVKRRRRRALAKRP [C149]
[1]
  cell permeability compared with TAT: higher cell permeability
  Score: 657
  Score/TAT: 1.266

## KARARRILRRREAP [C191]
[1]
  cell permeability compared with TAT: higher cell permeability
  Score: 592
  Score/TAT: 1.141
[4]
  cell permeability compared with TAT: higher cell permeability
[2]
  cell permeability compared with TAT: higher cell permeability

## KARARRILRRRETP [C190]
[1]
  cell permeability compared with TAT: higher cell permeability
  Score: 579
  Score/TAT: 1.116
[4]
  cell permeability compared with TAT: higher cell permeability

## LDRERRRKKAERRP [C312]
[1]
  Score: 271
  Score/TAT: 0.522

## LRRVETLRRRKQPR [C319]
[1]
  Score: 436
  Score/TAT: 0.840
[2]
  cell permeability compared with TAT: higher cell permeability
[3]
  cell permeability compared with TAT: higher cell permeability

## RALKLRRRRRAVLP [C68]
[1]
  Score: 0
  Score/TAT: 0.000

## RALRRRAARAARRP [C37]
[1]
  Score: 0
  Score/TAT: 0.000

## RALRRRLHRQRKLP [C355]
[1]
  Score: 497
  Score/TAT: 0.958
[4]
  cell permeability compared with TAT: higher cell permeability
[2]
  cell permeability compared with TAT: higher cell permeability
[3]
  cell permeability compared with TAT: higher cell permeability

## RERKRAARKKIKKP [C210]
[1]
  Score: 386
  Score/TAT: 0.744

## RERKRANRKKLKKP [C310]
[1]
  Score: 452
  Score/TAT: 0.871
[4]
  cell permeability compared with TAT: higher cell permeability
[3]
  cell permeability compared with TAT: higher cell permeability

## RKVLPRKQKRKRVK [C214]
[1]
  Score: 459
  Score/TAT: 0.884
[2]
  cell permeability compared with TAT: higher cell permeability

## RLKEERLKKRRRSP [C264]
[1]
  Score: 268
  Score/TAT: 0.516

## RLRAIRRRRRSLDP [C219]
[1]
  Score: 453
  Score/TAT: 0.873
[2]
  cell permeability compared with TAT: higher cell permeability

## RPIRKLVRKAREKR [C168]
[1]
  cell permeability compared with TAT: higher cell permeability
  Score: 608
  Score/TAT: 1.171
[4]
  cell permeability compared with TAT: higher cell permeability

## RPRRKKQVKRIGKR [C379]
[1]
  Score: 391
  Score/TAT: 0.753
[2]
  cell permeability compared with TAT: higher cell permeability

## RRKVVREKRKRKLP [C203]
[1]
  cell permeability compared with TAT: higher cell permeability
  Score: 544
  Score/TAT: 1.048
[2]
  cell permeability compared with TAT: higher cell permeability

## RRREPLRARARVRR [C387]
[1]
  cell permeability compared with TAT: higher cell permeability
  Score: 560
  Score/TAT: 1.079
[2]
  cell permeability compared with TAT: higher cell permeability
[3]
  cell permeability compared with TAT: higher cell permeability

## RRRQRKEKVRNQKP [C57]
[1]
  Score: 0
  Score/TAT: 0.000

## RSPARKRVRAQKKR [C360]
[1]
  Score: 388
  Score/TAT: 0.748

## RVAALLRRRRRERP [C202]
[1]
  cell permeability compared with TAT: higher cell permeability
  Score: 727
  Score/TAT: 1.401
[4]
  cell permeability compared with TAT: higher cell permeability
[2]
  cell permeability compared with TAT: higher cell permeability
[5]
  cell permeability compared with TAT: higher cell permeability

## YLRRKLRRRAGEPR [C230]
[1]
  Score: 305
  Score/TAT: 0.588
[2]
  cell permeability compared with TAT: higher cell permeability
[3]
  cell permeability compared with TAT: higher cell permeability
